Where two headings read alike, the source gives them in different places.
System: T1, Pyk2
T1 construct: full length, pET-28a N-terminal His-tag (removable by thrombin; tagged and cut similarly active), E. coli BL21(DE3), subunit 67,572 Da, homohexamer 430,881 Da by gel filtration
Assay: coupled L-lactate dehydrogenase / NADH assay, […] nm, allosteric sigmoidal fit
Assay type: biochemical, Corynebacterium glutamicum
Conditions: 5 mM MnSO4, 100 mM KCl, 100 mM Tris-HCl pH 7.4, 25°C, no effector, read-out: S 0.5

For `C=C(OP(=O)(O)O)C(=O)O` [PEP], the Km (2 mM ADP) was 4580 ± 740 µM.
In the case of `Nc1ncnc2c1ncn2[C@@H]1O[C@H](COP(=O)(O)OP(=O)(O)O)[C@@H](O)[C@H]1O` [ADP], the Km (5 mM PEP) is reported as 330 ± 30 µM.

Source: publication PMC5112673, “A novel pyruvate kinase and its application in lactic acid production under oxygen deprivation in Corynebacterium glutamicum” (BMC Biotechnology, 2016)
